Laboratory results as given in patent US9605064B2, “Methods and compositions for treatment of skin disorders” (AbbVie Biotechnology Ltd, priority 2006, dated 2017).
Several values for one entry are separate records, joined by “and”; a condition that tells them apart may be missing. Identical values can stand only once. Marks after values point to notes of the source that are not given here.

Test system: patients with moderate to severe chronic plaque psoriasis
Experiment: PASI response, Phase II 12-week placebo-controlled trial with 48-week extension
Format: in vivo, human
Settings: for Number of Patients Who Qualified for Dosage Escalation: 40 mg eow (n = 12); for PASI 50 (% patients) After Dose Escalation / PASI 75 (% patients) After Dose Escalation / PASI 90 (% patients) After Dose Escalation: escalation from eow to weekly dosing
From the text: Efficacy outcome measures included PASI and PGA.
The two primary clinical outcome measures used in this study were the psoriasis area and severity index (PASI) and the physician's global assessment (PGA). PASI improvement of greater than or equal to 75% (used as an endpoint in psoriasis clinical trials) at week 12 was the primary efficacy outcome measure for this study. PASI is a composite index indicating severity for three main signs of psoriatic plaques (erythema, scaling, and thickness), weighted by the amount of coverage of these plaques in four main body areas, i.e., head, trunk, upper extremities, and lower extremities. PASI scores, which range from 0-72, with higher scores indicating greater severity, were assessed at screening, baseline, week 1, week 2, week 4, week 8, week 12/early termination, and follow-up.
Skin and safety outcomes were assessed up to Week 60.
Analytical methods included the following: • Analyses of clinical data were performed on a modified intention-to-treat population (ITT). […] Patients whose dosages were increased on or after Week 24 were considered non-responders; • Patients with similar percentage PASI improvement across treatment arms were pooled into four strata: PASI<50, PASI 50-74, PASI 75-99, and PASI 100; and • Week-60 distribution of DLQI scores, mean DLQI scores, and mean change in DLQI from Week 0-60 were calculated within each stratum.
Frequently used as an endpoint in psoriasis clinical trials, the PASI [25] was the primary efficacy outcome in this trial. PASI is a composite index indicating the severity of the three main signs of psoriatic plaques (i.e., erythema, scaling, and thickness) and is weighted by the amount of coverage of these plaques in the four main body areas (head, trunk, upper extremities, and lower extremities). PASI scores range from 0-72, with higher scores indicating greater disease severity. PASI was assessed at screening and baseline, at Weeks 1, 2, 4, 8, and 12/Early Termination, and at the final follow-up visit.
At week 12, placebo patients received an 80-mg loading dose, then 40 mg every other week. […] Patients who receive the rescue therapy were considered non-responders in this analysis.

[1] = 40 mg eow, Week 60, modified ITT, NRI
[2] = 40 mg weekly, Week 60, modified ITT, NRI
[3] = (placebo→eow+eow) group, week 60, observed analysis
[4] = Efficacy at Weeks 24-60 (n = 22)
[5] = Week 12, adalimumab 40 mg eow, modified ITT, NRI
[6] = Week 12, adalimumab 40 mg weekly, modified ITT, NRI
[7] = Week 24, adalimumab 40 mg eow, modified ITT, NRI
[8] = Week 24, adalimumab 40 mg weekly, modified ITT, NRI
[9] = Week 24, placebo/adalimumab 40 mg eow (adalimumab from Week 12), modified ITT, NRI
[10] = Week 36, adalimumab 40 mg eow, modified ITT, NRI
[11] = Week 36, adalimumab 40 mg weekly, modified ITT, NRI
[12] = Week 36, placebo/adalimumab 40 mg eow (adalimumab from Week 12), modified ITT, NRI
[13] = Week 60, adalimumab 40 mg eow, modified ITT, NRI

“Adalimumab: a human anti-TNF mAb, described in U.S. Pat. No. 6,090,382 as D2E7 (HUMIRA, Abbott Laboratories)” was tested, and the “Number of Patients Who Qualified for Dosage Escalation” value (“Number of Patients Who Qualified” for short) (Week 24) was 9, the “Number of Patients Who Qualified” value (Week 28) was 1 and the “Number of Patients Who Qualified” value (Week 32) was 0. For the same substance, the “Number of Patients Who Qualified” value (Week 44) was 1, the “Number of Patients Who Qualified” value (Week 52) was 0 and the “Number of Patients Who Qualified” value (Week 60) was 1. For the same substance, the “patients with sustained, clinically significant improvement” value (40 mg eow dosing) was about 80%, the “Overall PASI 75 response rate” value (40 mg eow, Week 12, modified ITT, NRI) was 53* % of Patients and the “Overall PASI 75 response rate” value (40 mg eow, Week 24, modified ITT, NRI) was 64 % of Patients. The “Overall PASI 75 response rate” value (40 mg eow, Week 36, modified ITT, NRI) was 64 % of Patients, the “Overall PASI 75 response rate” value [1] was 58 % of Patients and 56 % of Patients and the “PASI 50 response rate” value [1] was 64 % Patients. For the same substance, the “PASI 90 response rate” value [1] was 33 % Patients, the “PASI 100 response rate” value [1] was 16 % Patients and the “Overall PASI 75 response rate” value (40 mg eow, Week 60, modified ITT, NRI, listed as adalimumab) was 58 % of Patients. For the same substance, the “mean percentage PASI improvement” value (40 mg every other week dosage of placebo/adalimumab, week 60) was 69%, the “mean percentage PASI improvement” value (40 mg of adalimumab alone, on a weekly basis, week 60) was 69% and the “Overall PASI 75 response rate” value (40 mg weekly, Week 12, modified ITT, NRI) was 80* % of Patients. The “Overall PASI 75 response rate” value (40 mg weekly, Week 24, modified ITT, NRI) was 72 % of Patients, the “Overall PASI 75 response rate” value (40 mg weekly, Week 36, modified ITT, NRI) was 68 % of Patients and the “Overall PASI 75 response rate” value [2] was 64 % of Patients. For the same substance, the “PASI 50 response rate” value [2] was 66 % Patients, the “PASI 90 response rate” value [2] was 48 % Patients and the “PASI 100 response rate” value [2] was 26 % Patients. The “mean percentage PASI improvement” value (40 mg weekly, week 60) was 84%, the “PASI 75-99 response rate” value [3] was 38 and the “PASI 100 response rate” value [3] was 17. For the same substance, the “PASI 75 Response at Week 60, patients eligible for dose escalation” value (Adalimumab 40 mg eow (n = 9)) was 22% (2/9), the “PASI 50 (% patients) After Dose Escalation” value (Efficacy at Week 60 (n = 22)) was 36% and the “PASI 75 (% patients) After Dose Escalation” value (Efficacy at Week 60 (n = 22)) was 18%. For the same substance, the “PASI 90 (% patients) After Dose Escalation” value (Efficacy at Week 60 (n = 22)) was 0%, the “PASI 50 (% patients) After Dose Escalation” value [4] was 55% and the “PASI 75 (% patients) After Dose Escalation” value [4] was 23%. The “PASI 90 (% patients) After Dose Escalation” value [4] was 5%, the “PASI 75 Response at Week 60, patients eligible for dose escalation” value (Placebo/Adalimumab 40 mg eow (n = 13)) was 15% (2/13) and the “Percentages of Patients with > PASI 75 Response” value (Week 12, 40 mg eow (Table 79)) was 53%. For the same substance, the “Percentages of Patients with > PASI 75 Response” value (Week 12, 40 mg weekly (Table 79)) was 80%, the “Percentage of patients who achieved PASI 100” value (Week 12, adalimumab 40 mg eow, NRI) was 11* % and the “PASI 50 (% patients)” value [5] was 76%. The “Percentage of patients who achieved PASI 75” value [5] was 53%, the “Percentage of patients who achieved PASI 90” value [5] was 24% and the “Percentage of patients who achieved PASI 100” value (Week 12, adalimumab 40 mg weekly, NRI) was 26* %. The “PASI 50 (% patients)” value [6] was 88%, the “Percentage of patients who achieved PASI 75” value [6] was 80% and the “Percentage of patients who achieved PASI 90” value [6] was 48%. For the same substance, the “Patients Eligible for Dose Escalation (<PASI 50 response), number” value (“Patients Eligible … number” below) (Week 24, Adalimumab 40 mg eow (n = 9)) was 5, the “Patients Eligible … number” value (Week 24, Placebo/Adalimumab 40 mg eow (n = 13)) was 5 and the “Percentage of patients who achieved PASI 100” value (Week 24, adalimumab 40 mg eow, NRI) was 13%. The “Percentage of patients who achieved PASI 75” value [7] was 64%, the “Percentage of patients who achieved PASI 90” value [7] was 42% and the “Percentage of patients who achieved PASI 100” value (Week 24, adalimumab 40 mg weekly, NRI) was 24%. For the same substance, the “Percentage of patients who achieved PASI 75” value [8] was 72%, the “Percentage of patients who achieved PASI 90” value [8] was 62% and the “Percentage of patients who achieved PASI 100” value (Week 24, placebo/adalimumab 40 mg eow (adalimumab from Week 12), NRI) was 11%. For the same substance, the “Percentage of patients who achieved PASI 75” value [9] was 55%, the “Percentage of patients who achieved PASI 90” value [9] was 32% and the “Patients Eligible … number” value (Week 28, Adalimumab 40 mg eow (n = 9)) was 1. For the same substance, the “Patients Eligible … number” value (Week 28, Placebo/Adalimumab 40 mg eow (n = 13)) was 2, the “Patients Eligible … number” value (Week 32, Adalimumab 40 mg eow (n = 9)) was 0 and the “Patients Eligible … number” value (Week 32, Placebo/Adalimumab 40 mg eow (n = 13)) was 2. For the same substance, the “Percentage of patients who achieved PASI 100” value (Week 36, adalimumab 40 mg eow, NRI) was 22%, the “Percentage of patients who achieved PASI 75” value [10] was 64% and the “Percentage of patients who achieved PASI 90” value [10] was 49%. The “Percentage of patients who achieved PASI 100” value (Week 36, adalimumab 40 mg weekly, NRI) was 36%, the “Percentage of patients who achieved PASI 75” value [11] was 68% and the “Percentage of patients who achieved PASI 90” value [11] was 58%. For the same substance, the “Percentage of patients who achieved PASI 100” value (Week 36, placebo/adalimumab 40 mg eow (adalimumab from Week 12), NRI) was 19%, the “Percentage of patients who achieved PASI 75” value [12] was 62% and the “Percentage of patients who achieved PASI 90” value [12] was 43%. For the same substance, the “Patients Eligible … number” value (Week 44, Adalimumab 40 mg eow (n = 9)) was 1, the “Patients Eligible … number” value (Week 44, Placebo/Adalimumab 40 mg eow (n = 13)) was 1 and the “Patients Eligible … number” value (Week 52, Adalimumab 40 mg eow (n = 9)) was 0. The “Patients Eligible … number” value (Week 52, Placebo/Adalimumab 40 mg eow (n = 13)) was 3, the “Patients Eligible … number” value (Week 60, Adalimumab 40 mg eow (n = 9)) was 2 and the “Patients Eligible … number” value (Week 60, Placebo/Adalimumab 40 mg eow (n = 13)) was 0. The “Percentage of patients who achieved PASI 100” value (Week 60, adalimumab 40 mg eow, NRI) was 16%, the “PASI 50 (% patients)” value [13] was 67% and the “Percentage of patients who achieved PASI 75” value [13] was 58%. For the same substance, the “Percentage of patients who achieved PASI 90” value [13] was 33% and the “Percentage of patients who achieved PASI 100” value (Week 60, adalimumab 40 mg weekly, NRI) was 26%.
